From PMC4996284 (CNS neuroscience & therapeutics, 2016)

Columns and labels:
rat ASIC1a [1] = molecular target: T1, rat ASIC1a (Rattus norvegicus, UniProt P55926); test: cell-based
T1 sequence (P55926 1-526): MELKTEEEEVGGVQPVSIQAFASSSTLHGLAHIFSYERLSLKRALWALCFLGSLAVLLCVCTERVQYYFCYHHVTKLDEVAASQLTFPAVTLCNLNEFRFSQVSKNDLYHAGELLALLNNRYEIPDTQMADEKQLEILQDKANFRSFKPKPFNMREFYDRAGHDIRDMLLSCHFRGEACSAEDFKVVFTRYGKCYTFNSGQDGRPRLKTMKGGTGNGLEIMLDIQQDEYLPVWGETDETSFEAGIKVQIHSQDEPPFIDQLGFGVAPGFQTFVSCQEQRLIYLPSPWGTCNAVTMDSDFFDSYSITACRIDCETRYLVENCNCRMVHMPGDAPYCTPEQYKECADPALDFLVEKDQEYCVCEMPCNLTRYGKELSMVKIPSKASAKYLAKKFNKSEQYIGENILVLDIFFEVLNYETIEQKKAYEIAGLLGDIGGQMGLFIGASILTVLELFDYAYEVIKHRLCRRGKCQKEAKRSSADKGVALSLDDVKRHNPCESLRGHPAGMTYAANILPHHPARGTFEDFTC

rat ASIC1a [2] = molecular target: T1, rat ASIC1a; conditions: potency relative to amiloride
[3] = tested on: MCAO-induced focal ischemia; test: Transient focal ischemia by middle cerebral artery occlusion; assay type: in vivo, mouse; conditions: mice, 1 µl of 500 µM i.c.v. 3h after MCAO (~12 µM); ACSF 49%

Compound	IC50 (rat ASIC1a [1]) [µM]	increased inhibitory activity on ASIC1a currents in comparison with amiloride (rat ASIC1a [2])	infarct volume [3] [%]
NC(=NCc1ccccc1)NC(=O)c1nc(Cl)c(N)nc1N [Benzamil]	3.5 ± 0.18	~ 4 fold	33.75
CCN(c1nc(N)c(C(=O)NC(=N)N)nc1Cl)C(C)C [EIPA, 5-(N-ethyl-N-isopropyl)amiloride]	20.7 ± 2.18		
NC(=Nc1ccccc1)NC(=O)c1nc(Cl)c(N)nc1N [Phenamil]	6.95	~ 2 fold	
